# Data: article PMC12491641 (Nature Communications, 2025)
# Key:
# Type in all cases: binding
# AtD14 (DWARF14) [1] = target: T1, AtD14 (DWARF14) (Arabidopsis thaliana, UniProt Q9SQR3); assay: intrinsic tryptophan fluorescence Kd
# T1 sequence (Q9SQR3 2-266): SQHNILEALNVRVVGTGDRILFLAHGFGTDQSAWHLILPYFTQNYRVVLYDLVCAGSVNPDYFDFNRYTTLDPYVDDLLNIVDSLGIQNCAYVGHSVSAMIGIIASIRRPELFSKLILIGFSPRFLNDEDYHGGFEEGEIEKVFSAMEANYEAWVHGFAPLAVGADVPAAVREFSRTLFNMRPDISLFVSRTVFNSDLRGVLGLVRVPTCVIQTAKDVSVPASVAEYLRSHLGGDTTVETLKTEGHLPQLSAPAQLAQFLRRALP
# AtD14 (DWARF14) [2] = target: T1, AtD14 (DWARF14); assay: co-crystal structure
# OsD14 = target: T2, OsD14 (Oryza sativa, UniProt Q10QA5); assay: nanoDSF Tm increase
# T2 sequence (Q10QA5 1-318): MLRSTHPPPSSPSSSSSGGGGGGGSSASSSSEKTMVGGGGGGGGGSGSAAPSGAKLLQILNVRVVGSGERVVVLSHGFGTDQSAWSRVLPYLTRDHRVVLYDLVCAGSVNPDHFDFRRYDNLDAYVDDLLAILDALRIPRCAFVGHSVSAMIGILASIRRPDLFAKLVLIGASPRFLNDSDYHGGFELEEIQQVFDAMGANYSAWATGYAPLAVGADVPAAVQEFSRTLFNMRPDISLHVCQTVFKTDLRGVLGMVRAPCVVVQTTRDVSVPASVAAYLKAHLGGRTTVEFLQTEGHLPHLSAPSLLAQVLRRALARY
Kd (AtD14 (DWARF14) [1]) [nM],Kd (AtD14 (DWARF14) [2]) [nM],SMILES,nanoDSF Tm increase; tryptophan fluorescence (OsD14)
990,–,CC1=CC(O/C=C2/C(=O)OC3c4ccccc4CC23)OC1=O (racemic) [(±)-GR24],–
–,1800,CC(=O)/C=C/C=C(C)/C=C/C1=C(C)CC(O)CC1(C)C (stereo in doubt) [zaxinone],tryptophan fluorescence assays confirmed the direct interaction between OsD14 and zaxinone
